Converted amounts (≈) assume the structure as drawn. “Also recorded” adds a separate entry of the source. Marks after values point to notes of the source that are not given here.
How the values were obtained:
[1] = Clinical observations and clinical pathology (liver enzymes) in monkeys; type: in vivo, cynomolgus monkeys (macaca fasicularis); conditions: for ALT / AST / LDH: fed
Description: (§1) For both species, each animal was part of each experimental group, with a 7-day interval between treatments to allow for washout of the dosing formulation and its effects. Dosing formulations of SR13668 were administered by oral gavage (intragastric) or intravenous (i.v.) injection as a single dose or once daily for seven consecutive days. Oral to doses were administered at a dosing volume of 5 mL/kg of body weight, while intravenous doses were administered at a dosing volume of 0.5 mL/kg of body weight. Dogs were dosed with 93.6 mg/m^2 SR13668 intravenously in DMSO:PEG300 15:85 (v/v) or orally in Solutol® vehicle (two groups, fed and after an overnight fast). Monkeys were dosed with 84.2 mg/m^2 SR13668 intravenously in DMSO:PEG300 15:85 (v/v) or orally (336.7 mg/m^2 SR13668 for the oral high dose group) in PEG400:Labrasol® 1:1 (v/v) or Solutol® vehicles. Vehicle control groups were used to assess the tolerability of the vehicle and for clinical pathology evaluations.
(§2) At the end of each dosing period, the animals were examined for detailed clinical signs and symptoms (i.e., alterations of teeth, nose, eyes, perineum, pelage and body orifices; changes in appearance or behavior) and/or presence of any tissue masses. Body weights were recorded prior to treatment and daily during each testing interval. Quantitative (grams/day) food consumption data were recorded for dogs on a daily basis during each testing interval. Qualitative food consumption observations were recorded for monkeys on a daily basis during each testing interval. Blood samples for clinical pathology (clinical chemistry, hematology, and coagulation) parameter evaluation were collected from dogs and monkeys prior to dosing and on Days 2 and 8 post-dose, as well as from monkeys on Days 15 and 30 post-dose.

[2] = Solubility of SR13668 in various solvents; type: physicochemical; conditions: for solubility: thermodynamic from solid
Text: The other three systems are similar to the Solutol solutions, but the Solutol is the best candidate having the lowest freezing point (see Table 10) and a high SR13668 solubility (see Table 11). […] Vit E TPGS is water soluble natural-source vitamin E d-alpha tocopheryl polyethyleneglycol succinate, 387 IU/g. Myrj is Polyethylene Glycol (50) Monostearate.

[3] = Green C., unpublished results; cited from earlier work
[4] = Oral bioavailability of PEG400:Labrasol formulation in dogs (earlier finding); conditions: dog, in vivo
[5] = Clinical observations and clinical pathology in dogs; type: in vivo, beagle dogs; conditions: for ALT / AST / LDH: day 2 following a single dose
Description: as §1, §2

[6] = Time for syringe dosage forms to dissolve in warm water; type: physicochemical; conditions: shaken in warm water (approximately 40° C.)
Description: A similar set of sample tubes was prepared for a monkey study. Twenty-eight tubes with 11.2±0.1 g of 5 mg/g SR13668 in Solutol were prepared providing a dose of 56 mg SR13668 per tube. A set of 3-mL disposable plastic syringes were prepared containing a 5 mg dose of SR13668 in either Solutol, Vit E TPGS or 1:1 Solutol:Vit E TPGS. The syringes were prepared so the dosage form could be pushed out and dissolved in warm water to administer to monkeys by gavage. The syringes were prepared by (a) cutting off the tip-end at the 0.1 mL mark of a plastic, disposable 3-mL syringe, (b) pulling back the plunger, (c) filling the syringe by weight with the liquid melt at 65° C. to give the correct dosage and (d) allowing the formulation to harden. Each formulation contained between 3.5-4.2 mg SR13668/g matrix and approximately 1.2 g of the formulation was needed in each syringe to give a 5 mg dose. The syringes were fairly easy to make and to expel the dosage form into warm water. The doses where shaken in warm water (approximately 40° C.) and took the following amounts of time to dissolve: <1 min. for Solutol, 15 min for 1:1 Solutol:Vit E TPGS, and 37 min for Vit E TPGS.

[7] = Oral bioavailability of PEG400:Labrasol formulation in rats; conditions: rat, in vivo
[8] = Day 2 (n = 2), 84.2 mg/m^2 (7.02 mg/kg) oral gavage daily days 1 through 7, PEG400:Labrasol 1:1 v/v
[9] = Day 8, 84.2 mg/m^2 (7.02 mg/kg) oral gavage daily days 1 through 7, PEG400:Labrasol 1:1 v/v
[10] = Day 15 (after discontinuation), 84.2 mg/m^2 (7.02 mg/kg) oral gavage daily days 1 through 7, PEG400:Labrasol 1:1 v/v
[11] = Day 30 (after discontinuation), 84.2 mg/m^2 (7.02 mg/kg) oral gavage daily days 1 through 7, PEG400:Labrasol 1:1 v/v
[12] = day 2 following a single dose, 84.2 mg/m^2 (7.02 mg/kg) iv, DMSO:PEG300 15:85 v/v
[13] = day 2 following a single dose, 84.2 mg/m^2 (7.02 mg/kg) oral gavage, Solutol
[14] = day 2 following a single dose, 336.7 mg/m^2 (28.06 mg/kg) oral gavage, PEG400:Labrasol 1:1 v/v
[15] = day 2 following a single dose, n = 4, 84.2 mg/m^2 (7.02 mg/kg) oral gavage, PEG400:Labrasol 1:1 v/v
[16] = 93.6 mg/m^2 (4.68 mg/kg) iv, DMSO:PEG300 15:85 v/v, fed
[17] = 93.6 mg/m^2 (4.68 mg/kg) oral gavage, Solutol, fasted
[18] = 93.6 mg/m^2 (4.68 mg/kg) oral gavage, Solutol, fed

## CCOC(=O)c1ccc2[nH]c3c(OC)c4[nH]c5ccc(C(=O)OCC)cc5c4cc3c2c1 [SR13668, 2,10-dicarbethoxy-6-methoxy-5,7-dihydro-indolo-(2,3-b)carbazole]
[1]
  adverse treatment-related clinical observations: soft stools and diarrhea in orally but not i.v. dosed monkeys
  effects on body weights, body weight gains or food consumption: No significant treatment-related effects on body weights, body weight gains or food consumption
  effects on clinical pathology (clinical chemistry, hematology, coagulation): modest, reversible increase in liver function enzymes; also recorded: modest increases in liver enzymes
  mortality or morbidity: no mortalities or morbidity
[1]; [8]
  ALT: 112 ± 52 IU/L
  AST: 234 ± 115 IU/L
  LDH: 1022 ± 401 IU/L
[1]; [9]
  ALT: 100 ± 38 ^a IU/L
  AST: 178 ± 86 ^b IU/L
  LDH: 1035 ± 596 IU/L
[1]; [10]
  ALT: 41.3 ± 10 IU/L
  AST: 24.0 ± 2.9 IU/L
  LDH: 184 ± 39 IU/L
[1]; [11]
  ALT: 33.3 ± 2.2 IU/L
  AST: 22.5 ± 4.3 IU/L
  LDH: 168 ± 39 IU/L
[1]; LDH, ALT, AST
  reversibility of liver enzyme increases: reversible on discontinuation of dosing
[1]; [12]
  ALT: 88.5 ± 37 IU/L
  AST: 134 ± 41 ^b IU/L
  LDH: 730 ± 210 ^c IU/L
[1]; [13]
  ALT: 95.5 ± 33 IU/L
  AST: 150 ± 40 ^b IU/L
  LDH: 779 ± 403 IU/L
[1]; [14]
  ALT: 108 ± 28 ^a IU/L
  AST: 188 ± 34 ^b IU/L
  LDH: 753 ± 242 ^c IU/L
[1]; [15]
  ALT: 86.0 ± 24 IU/L
  AST: 138 ± 75 IU/L
  LDH: 795 ± 455 IU/L
[2]
  aqueous solubility: extremely low
[2]; 65 °C, aqueous with cosolvent or surfactant or cyclodextrin, Solutol, 65-70 ° C., HPLC
  solubility: 7000 µg/mL (≈ 16300 µM)
[2]; 65 °C, aqueous with cosolvent or surfactant or cyclodextrin, Vitamin E TPGS, 65-70 ° C., UV
  solubility: 5500 µg/mL (≈ 12800 µM)
[2]; 65 °C, organic solvent or mixture, Gelucire 44/14, 65-70 ° C., UV
  solubility: 4260 µg/mL (≈ 9900 µM)
[2]; 65 °C, organic solvent or mixture, Gelucire 50/13, 65-70 ° C., UV
  solubility: 4150 µg/mL (≈ 9640 µM)
[2]; 65 °C, organic solvent or mixture, Myrj 52, 65-70 ° C., UV
  solubility: 6700 µg/mL (≈ 15600 µM)
[2]; 65 °C, organic solvent or mixture, Myrj 53, 65-70 ° C., UV
  solubility: 6800 µg/mL (≈ 15800 µM)
[2]; 65 °C, organic solvent or mixture, PEG-400, 65-70 ° C., UV
  solubility: 9000 µg/mL (≈ 20900 µM)
[2]; 65 °C, organic solvent or mixture, PEG-400 New, 65-70 ° C., UV
  solubility: 7600 µg/mL (≈ 17700 µM)
[2]; 65 °C, organic solvent or mixture, PEG-1000, 65-70 ° C., UV
  solubility: 8150 µg/mL (≈ 18900 µM)
[2]; 65 °C, organic solvent or mixture, PEG-2000, 65-70 ° C., UV
  solubility: 8800 µg/mL (≈ 20400 µM)
[2]; fassgf or other biorelevant, Simulated Intestinal Fluid, RT, HPLC
  solubility: 0.0075 µg/mL (≈ 0.0174 µM)
[2]; oil or lipid, Corn Oil, RT, HPLC
  solubility: 108 µg/mL (≈ 251 µM)
[2]; oil or lipid, Safflower Oil, RT, HPLC
  solubility: 77 µg/mL (≈ 179 µM)
[2]; oil or lipid, Sesame Oil, RT, HPLC
  solubility: 47 µg/mL (≈ 109 µM)
[2]; oil or lipid, Soybean Oil, RT, HPLC
  solubility: 55 µg/mL (≈ 128 µM)
[2]; oil or lipid, Sunflower Oil, RT, HPLC
  solubility: 66 µg/mL (≈ 153 µM)
[2]; organic solvent or mixture, 1-octanol, RT, HPLC
  solubility: 123 µg/mL (≈ 286 µM)
[2]; organic solvent or mixture, Absolute Ethanol, RT, HPLC
  solubility: 75 µg/mL (≈ 174 µM)
[2]; organic solvent or mixture, Acetone, RT, HPLC
  solubility: 950 µg/mL (≈ 2210 µM)
[2]; organic solvent or mixture, Acetonitrile, RT, HPLC
  solubility: 84.9 µg/mL (≈ 197 µM)
[2]; organic solvent or mixture, Chemophore EL, RT, HPLC
  solubility: 264 µg/mL (≈ 613 µM)
[2]; organic solvent or mixture, DMSO, RT, UV
  solubility: 106000 µg/mL (≈ 246000 µM)
[2]; organic solvent or mixture, Ethanol, RT, UV
  solubility: 148 µg/mL (≈ 344 µM)
[2]; organic solvent or mixture, Ethyl Acetate, RT, HPLC
  solubility: 230 µg/mL (≈ 534 µM)
[2]; organic solvent or mixture, Glycerin, RT, HPLC
  solubility: 47 µg/mL (≈ 109 µM)
[2]; organic solvent or mixture, Labrasol, RT, UV
  solubility: 380 µg/mL (≈ 883 µM)
[2]; organic solvent or mixture, Methanol, RT, UV
  solubility: 86.3 µg/mL (≈ 200 µM)
[2]; organic solvent or mixture, Methylene Chloride, RT, HPLC
  solubility: 62 µg/mL (≈ 144 µM)
[2]; organic solvent or mixture, PEG-400, RT, UV
  solubility: 880 µg/mL (≈ 2040 µM)
[2]; organic solvent or mixture, PEG-400 New, RT, UV
  solubility: 1370 µg/mL (≈ 3180 µM)
[2]; organic solvent or mixture, Pluronic F-127, 120 ° C., HPLC
  solubility: 9480 µg/mL (≈ 22000 µM)
[2]; organic solvent or mixture, Propylene Glycol, RT, HPLC
  solubility: 84 µg/mL (≈ 195 µM)
[2]; Simulated Gastric Fluid, RT, HPLC
  solubility: 0.014 µg/mL (≈ 0.0325 µM)
[2]; Water, RT, HPLC
  solubility: 0.01 µg/mL (≈ 0.0232 µM)
[3]
  metabolism in rat microsomes: slow metabolism
[4]
  bioavailability: < 1%
[5]
  adverse treatment-related clinical observations: vomiting in fasted dogs
  effects on body weights, body weight gains or food consumption: No significant treatment-related effects on body weights, body weight gains or food consumption
  effects on clinical pathology (clinical chemistry, hematology, coagulation): did not cause untoward hematology, clinical chemistry, or coagulation effects; also recorded: No treatment-related effects on any clinical pathology variables
  mortality or morbidity: no mortalities or morbidity
[5]; [16]
  ALT: 41.8 ± 5.4 IU/L
  AST: 30.8 ± 5.2 IU/L
  LDH: 54.8 ± 23 ^c IU/L
[5]; [17]
  ALT: 44.8 ± 10 IU/L
  AST: 30.8 ± 7.2 IU/L
  LDH: 56.3 ± 9.4 IU/L
[5]; [18]
  ALT: 39.5 ± 4.7 IU/L
  AST: 29.3 ± 3.6 IU/L
  LDH: 30.3 ± 6.2 ^c IU/L
[6]; 5 mg dose of SR13668 in 1:1 Solutol:Vit E TPGS
  time to dissolve: 15 min
[6]; 5 mg dose of SR13668 in Solutol
  time to dissolve: < 1 min
[6]; 5 mg dose of SR13668 in Vit E TPGS
  time to dissolve: 37 min
[7]
  bioavailability: < 1%

From patent publication US20120184590A1, “FORMULATIONS OF INDOLE-3-CARBINOL DERIVED ANTITUMOR AGENTS WITH INCREASED ORAL BIOAVAILABILITY” (UNIVERSITY OF KANSAS, priority 2009, published 2012)
